# Reference: paper PMC8955485, “Journey on VX-809-Based Hybrid Derivatives towards Drug-like F508del-CFTR Correctors: From Molecular Modeling to Chemical Synthesis and Biological Assays” (Pharmaceuticals, 2022)
# pEC50: −log10 of the molar value.
# Legend:
# Type in all cases: cell-based
# Design in all cases: expressed in transfected cells
# [1] = biological target: T1, F508del-CFTR (Homo sapiens, UniProt P13569, DEL508-508); test: HS-YFP functional assay of corrector combinations with VX-445; conditions: CFBE41o- cells, 24 h, VX-445 3 µM; for effect of combination with VX-445 on F508del-CFTR activity: forskolin 20 µM plus VX-770 1 µM
# Experimental: Now, to further characterize the activity of these compounds, we tested the novel derivates 9b, 9g, and 9j, along with VX-809 as a positive control, in combination with VX-445 (3 µM), in CFBE41o-cells stably expressing F508del-CFTR by using the YFP functional assay (Figure 7). To this aim, cells were treated for 24 h with test compounds at different concentrations, in combination with VX-445 (3 µM), and then assayed after maximal stimulation of F508del-CFTR in the presence of forskolin (20 µM) plus VX-770 (1 µM).
# (§1) CFBE41o-cells co-expressing mutants CFTR and HS-YFP were plated (50,000 cells/well) on clear-bottom 96-well black microplates (Corning Life Sciences, Acton, MA) and grown at 37 °C in 5% CO2 for 24 h. For the corrector assay, CFBE41o-cells were treated for further 24 h with compounds as indicated. The following day, prior to the assay, the culture medium was removed and cells were stimulated for 30 min at 37 °C with 60 µL PBS (containing 137 mM NaCl, 2.7 mM KCl, 8.1 mM Na2HPO4, 1.5 mM KH2PO4, 1mM CaCl2, and 0.5 mM MgCl2) plus forskolin (20 µM) and VX-770 (1 µM).
# (§2) Microplates containing CFBE41o-cells were then transferred to a plate reader (FluoStar Galaxy; BMG Labtech, Offenburg, Germany) equipped with excitation (HQ500/20X: 500 ± 10 nm) and emission (HQ535/30M: 535 ± 15 nm) filters for YFP (Chroma Technology, Brattleboro, VT, USA). During the assay fluorescence was measured continuously for 14 s with 2 s before and 12 s after injection of an iodide containing solution (165 µL of a modified PBS containing I^- instead of Cl^-; final I^- concentration in the well: 100 mM).
# (§3) Fluorescence data were normalized for the initial value and fluorescence quenching rate following I^- influx, were determined by fitting the final 10 s of data for each well with an exponential function to extrapolate initial slope (dF/dt).
# Figure 7 Functional analysis of corrector combinations. F508del-CFTR activity was determined in CFBE41o-cells with stable expression of the HS-YFP. Cells were treated for 24 h with VX-445 (3 µM) alone or in combination with 9b, or 9g, or 9j, or VX-809 at different concentrations (from 102 nM to 10 µM). The YFP-based assay was performed after stimulation of CFTR activity with forskolin (20 µM) plus VX-770 (1 µM).
# [2] = biological target: T1, F508del-CFTR; test: Western blot analysis of CFTR expression pattern (C band/B band ratio); conditions: F508del-CFTR/HS-YFP CFBE41o- cells; 24 h; 50 nM and 1 µM; versus DMSO
# Excerpt: We then biochemically estimated the rescue of the trafficking defect by analyzing the electrophoretic mobility of mutant CFTR protein. In Western blots, CFTR protein can be detected as two bands B and C, of approximately 150 and 170 kDa, respectively. Band B corresponds to immature, partially glycosylated CFTR, while band C corresponds to the mature fully glycosylated CFTR. In cells expressing wild-type CFTR protein, the prevalent form is band C, while the main form in cells expressing F508del-CFTR is band B, in agreement with the severe trafficking defect caused by this mutation (Figure 8). To estimate the effect of our molecules on CFTR expression pattern, we treated F508del-CFTR/HS-YFP expressing CFBE41o-cells for 24 h with test compounds 9b, 9g, and 9j (50 nM and 1 µM) VX-809 as a positive control or DMSO as a vehicle alone.
# The next day, cells were lysed and the obtained lysates were subjected to SDS-PAGE followed by Western blotting (Figure 8A). Western blot images were analyzed with ImageJ software. CFTR bands, analyzed as ROI, were quantified in each lane after normalization for GAPDH as a loading control. […]
# Supernatant protein concentration was calculated using the BCA assay (Euroclone, Milan, Italy). For each sample, 10 μg of total proteins was resolved in 4–20% gradient Criterion TGX precast gels, transferred to nitrocellulose membranes (using a Trans-Blot Turbo system; Bio-Rad, Hercules, CA, USA), and analyzed by Western blotting. Proteins were detected using the antibodies described above and subsequently visualized by chemiluminescence using the SuperSignal West Femto Substrate (Thermo Fisher Scientific, Waltham, MA, USA). […] Images were analyzed with ImageJ software (NIH). Bands were analyzed as ROI, normalized against the GAPDH loading control.
# Figure 8 Biochemical analysis of the F508del-CFTR expression pattern: (A). […] Quantification of the C band/B band ratio in experiments as in (A). […]
# [3] = biological target: T1, F508del-CFTR; test: HS-YFP functional assay for F508del-CFTR correctors in CFBE41o- cells; conditions: CFBE41o- cells stably expressing F508del-CFTR and HS-YFP; 24 h incubation; stimulation with forskolin 20 µM plus VX-770 1 µM
# Experimental: The ability of these compounds to correct the basic defects related to F508del mutant was evaluated on immortalized CFBE41o-bronchial epithelial cells stably expressing F508del-CFTR and the halide sensitive yellow fluorescent protein (HS-YFP).
# The measurements of the rate of HS-YFP quenching caused by iodide influx allowed us to determine the activity of F508del-CFTR, after incubation with the compounds, as cited. Activity was then compared to that of cells treated with the corrector VX-809 (1 µM) or with vehicle alone (DMSO).
# Within the novel third series of hybrids herein proposed, based on their potency and efficacy in terms of CFTR rescue, we selected six compounds and determined the dose–response relationships (Figure 6). To this aim, F508del-CFTR expressing CFBE41o-cells were treated for 24 h with our hybrids 9b, 9f, 9g, 9h, 9j, and 9y and then mutant CFTR activity was measured by using the YFP functional assay (see Materials and Methods section for details).
# Immortalized bronchial epithelial CFBE41o-cells with stable co-expression of the halide-sensitive yellow fluorescent protein (HS-YFP) and of F508del-CFTR were cultured using MEM medium supplemented with 10% fetal calf serum, 100 U/mL penicillin, 2 mM L-glutamine, and […] streptomycin.
# as §1, §2, §3
# To evaluate the dose–response relationships, activity slopes obtained for each compound at the different concentrations were fitted with the Hill equation using the Igor software (WaveMetrics) to extrapolate EC50, maximal effect, and Hill coefficient.
# T1 sequence (P13569 with tags, fused parts or gaps DEL508-508): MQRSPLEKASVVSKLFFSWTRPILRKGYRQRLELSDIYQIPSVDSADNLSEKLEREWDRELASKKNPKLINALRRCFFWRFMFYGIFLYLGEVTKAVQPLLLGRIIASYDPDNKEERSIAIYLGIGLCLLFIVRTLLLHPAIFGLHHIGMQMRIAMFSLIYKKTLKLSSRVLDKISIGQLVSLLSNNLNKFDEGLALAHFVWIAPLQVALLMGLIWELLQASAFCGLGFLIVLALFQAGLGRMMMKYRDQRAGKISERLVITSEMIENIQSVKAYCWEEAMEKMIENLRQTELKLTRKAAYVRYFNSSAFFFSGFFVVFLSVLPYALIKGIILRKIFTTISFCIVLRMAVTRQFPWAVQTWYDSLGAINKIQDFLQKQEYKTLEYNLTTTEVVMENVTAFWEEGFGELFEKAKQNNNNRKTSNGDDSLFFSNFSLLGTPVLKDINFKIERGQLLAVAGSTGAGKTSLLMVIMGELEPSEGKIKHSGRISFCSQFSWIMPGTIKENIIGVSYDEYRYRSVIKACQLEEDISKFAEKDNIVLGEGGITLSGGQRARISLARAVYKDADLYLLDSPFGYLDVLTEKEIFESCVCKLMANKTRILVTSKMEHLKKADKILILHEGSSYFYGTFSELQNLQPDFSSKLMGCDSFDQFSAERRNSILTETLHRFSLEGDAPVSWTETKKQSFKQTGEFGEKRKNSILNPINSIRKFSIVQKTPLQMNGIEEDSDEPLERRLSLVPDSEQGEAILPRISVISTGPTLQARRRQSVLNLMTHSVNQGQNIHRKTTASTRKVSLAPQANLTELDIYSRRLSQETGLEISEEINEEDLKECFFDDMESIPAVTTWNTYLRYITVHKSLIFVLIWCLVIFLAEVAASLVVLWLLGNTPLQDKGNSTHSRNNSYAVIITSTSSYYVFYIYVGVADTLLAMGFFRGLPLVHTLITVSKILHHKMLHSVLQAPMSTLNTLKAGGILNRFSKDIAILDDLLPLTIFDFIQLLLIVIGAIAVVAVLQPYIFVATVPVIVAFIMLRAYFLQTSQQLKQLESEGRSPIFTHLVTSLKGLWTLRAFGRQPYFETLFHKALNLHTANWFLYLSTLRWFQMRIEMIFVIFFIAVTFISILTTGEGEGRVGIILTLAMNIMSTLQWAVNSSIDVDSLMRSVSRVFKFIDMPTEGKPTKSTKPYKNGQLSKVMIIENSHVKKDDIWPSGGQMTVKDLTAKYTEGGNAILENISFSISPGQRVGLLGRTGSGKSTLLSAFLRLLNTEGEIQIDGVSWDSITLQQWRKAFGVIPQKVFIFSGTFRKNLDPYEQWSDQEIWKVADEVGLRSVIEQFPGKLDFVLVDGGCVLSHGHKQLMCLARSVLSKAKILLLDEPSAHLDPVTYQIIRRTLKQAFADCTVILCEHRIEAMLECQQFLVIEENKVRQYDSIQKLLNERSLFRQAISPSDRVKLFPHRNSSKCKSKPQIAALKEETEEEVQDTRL
effect of combination with VX-445 on F508del-CFTR activity [1],C band/B band ratio [2],pEC50 [3],SMILES,combination with VX-445 compared with VX-809 + VX-445: maximal rescue and activity at low concentration [1]
clear additive effect,significant enhancement,7.48,COc1ccc(-c2nc(NC(=O)C3(c4ccc5c(c4)OCO5)CC3)sc2C(=O)c2ccc(N3CCCC3)cc2)cc1 [Compound 9g],as effective as the combination with the positive control VX-809
clear additive effect,significant enhancement,7.43,COc1cccc(-c2nc(NC(=O)C3(c4ccc5c(c4)OCO5)CC3)sc2C(=O)c2ccc(OC(F)(F)F)cc2)c1 [Compound 9j],as effective as the combination with the positive control VX-809
